{"source": "patent US11541028B2", "about": "“Peptide pharmaceuticals for treatment of NASH and other disorders” (Mederis Diabetes LLC, priority 2018, dated 2023)", "key": {"db/db mice": {"test_system": "db/db mice", "test": "Glucose-lowering activity in db/db mice", "assay_type": "in vivo", "conditions": "for food consumption versus liraglutide: day 2", "protocol": "The 60 female db/db B6BKS (D) Leprdb/J (strain 000697) mice for this study were about 8-9 weeks old at arrival (Jackson Laboratory, Bar Harbor, Me.). […] One group of 8 female mice served as the vehicle control and received the vehicle, 0.2% BSA in saline, pH 7.4. One additional group of 8 female mice received the positive-control compound, liraglutide, at a dose level of 50 nmoles/kg. The test compounds, vehicle and positive-control compound were subcutaneously injected at a dose volume of 6 mL/kg on day 1 at about 0, 7 and 24 hours.\nClinical observations were conducted at receipt, prior to randomization, and daily from days 1 to 5. Body weights were measured and recorded at receipt, prior to randomization, and daily from days 1 to 5. Food consumption was measured and recorded daily from days 1 to 5. Blood samples for glucose analysis were collected pre-study (day −3) and at 0, 1, 2, 4, 8, 10, 24, 48, 72 and 96 hours following the first dose on day 1. At study termination all animals were euthanized, and the carcasses were discarded without further evaluation."}, "human GLP-1 receptor": {"target": "T1, human GLP-1 receptor (Homo sapiens, UniProt P43220)", "T1 construct": "host or cells: CHO cells", "T1 sequence (P43220 24-463)": "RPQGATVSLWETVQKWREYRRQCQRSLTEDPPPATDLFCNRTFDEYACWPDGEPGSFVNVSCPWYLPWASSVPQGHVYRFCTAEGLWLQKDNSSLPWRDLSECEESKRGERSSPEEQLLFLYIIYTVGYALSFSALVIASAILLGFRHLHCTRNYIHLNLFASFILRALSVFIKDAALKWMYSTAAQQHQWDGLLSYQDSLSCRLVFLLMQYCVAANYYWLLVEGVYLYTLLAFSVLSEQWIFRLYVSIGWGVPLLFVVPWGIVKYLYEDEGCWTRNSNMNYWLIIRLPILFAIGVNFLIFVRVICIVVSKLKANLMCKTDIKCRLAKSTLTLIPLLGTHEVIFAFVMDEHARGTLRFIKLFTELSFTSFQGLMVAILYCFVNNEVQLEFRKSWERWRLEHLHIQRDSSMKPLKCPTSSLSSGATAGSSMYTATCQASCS", "test": "DiscoveRx LeadHunter cellular assay, cAMP stimulation, GLP-1 receptor in CHO cells", "assay_type": "cell-based", "conditions": "human GLP-1 receptor in CHO cells (DiscoveRx); read-out: EC50 cAMP GLP-1 R", "description": "(§1) A further series of cellular assays was carried out with standard cellular assays (DiscoveRx, LeadHunter assays) using readout of cAMP stimulation or arrestin activation. Compounds were weighed precisely in an amount of about 1 mg and shipped to DiscoveRx for dilution and assay."}, "human glucagon receptor": {"target": "T2, human glucagon receptor (Homo sapiens, UniProt P47871)", "T2 construct": "host or cells: CHO cells", "T2 sequence (P47871 26-477)": "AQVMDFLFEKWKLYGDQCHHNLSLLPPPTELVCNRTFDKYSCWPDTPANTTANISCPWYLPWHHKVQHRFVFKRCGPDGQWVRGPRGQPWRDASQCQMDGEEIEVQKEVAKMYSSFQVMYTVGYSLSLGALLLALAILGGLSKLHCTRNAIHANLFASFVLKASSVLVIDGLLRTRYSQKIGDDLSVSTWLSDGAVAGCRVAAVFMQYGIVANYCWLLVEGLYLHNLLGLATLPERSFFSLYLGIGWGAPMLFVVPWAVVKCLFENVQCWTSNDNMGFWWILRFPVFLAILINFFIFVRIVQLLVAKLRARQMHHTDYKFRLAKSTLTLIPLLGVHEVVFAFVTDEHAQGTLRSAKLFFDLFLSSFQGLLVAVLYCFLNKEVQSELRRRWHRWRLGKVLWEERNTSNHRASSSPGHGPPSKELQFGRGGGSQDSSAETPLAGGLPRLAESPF", "test": "DiscoveRx LeadHunter cellular assay, cAMP stimulation, glucagon receptor in CHO cells", "assay_type": "cell-based", "description": "as §1"}, "DIO-NASH mice": {"test_system": "DIO-NASH mice", "test": "Biopsy-proven DIO-NASH mouse model", "assay_type": "in vivo", "conditions": "for hepatocyte ballooning score (0-2), pre-study to post-study biopsy: animals that initially exhibited ballooning", "protocol": "All mice entering the study were stratified based on liver pre-biopsy at week −3. Only mice with a fibrosis score ≥1 and a steatosis score ≥2 were included in the study. The stratified mice were randomized into treatment groups based on liver collagen type 1 alpha 1 (collal) quantification at week −3.\nBody weight was measured daily for the entire study period. Food intake was measured daily for the first 14 days, and then weekly until study end. EchoMRI whole-body scanning was performed in week 11. At study end were measured plasma levels of alanine transaminase (ALT), aspartate transaminase (AST), γ-glutamyltransferase (GGT), triglycerides (TG) and total cholesterol (TC), liver levels of TG, TC, col1α1 and galectin-3, the expression levels of a wide variety of mRNAs in the liver, and the liver weight, and were performed liver biopsy/necropsy to assess steatosis, inflammation, ballooning and fibrosis of the liver.\nFor blood and plasma assays, blood samples were collected in heparinized tubes and plasma was separated and stored at −80° C. until analysis. ALT, AST, GGT, TG and TC levels were measured using commercial kits (Roche Diagnostics, Germany) and the Cobas™ C-501 autoanalyzer according to the manufacturer's instructions.\nFor liver tissue assays, the triglycerides and cholesterol content in the liver was measured using the Triglyceride and Cholesterol reagents (Cat. No. 22-045-795 and Cat. No. 22-045-780, respectively, Roche Diagnostics, Germany) and the Cobas™ C-501 autoanalyzer. Homogenized liver tissue was heated to 80-100° C. twice and centrifuged in a microcentrifuge, and the triglycerides and cholesterol content in the resulting supernatant was measured.\nThe body composition of the mice was assessed by an EchoMRI 3-1 body composition analyzer (EchoMRI, U.S.). Unanesthetised mice were placed in a plastic tube inside the MRI scanner for about 80 seconds. The body composition was expressed as fat tissue mass, fat-free tissue mass (lean tissue mass) and water.\nFor liver biopsy, mice were anesthetized by inhalation of isoflurane (2-3%). A small abdominal incision was made in the midline, and the left lateral lobe of the liver was exposed. A cone-shaped wedge of liver tissue (about 50 mg) was excised from the distal portion of the lobe and fixated in 10% neutral-buffered formalin (4% formaldehyde) for histology. The cut surface of the liver was instantly electro-coagulated using bipolar coagulation (ERBE VIO 100 electrosurgical unit). After pre-biopsy, the liver was returned to the abdominal cavity, the abdominal wall was sutured, and the skin was closed with staples. For post-operative recovery, the mice were administered carprofen (5 mg/kg) subcutaneously on the day of operation and on days 1 and 2 post-operation.\nFor histological staining, in brief, slides with paraffin-embedded sections were de-paraffinated in xylene and then rehydrated in a series of graded ethanol. For hematoxylin and eosin (H&E) staining, the slides were incubated in Mayer's Hematoxylin (Dako), washed in tap water, stained in Eosin Y solution (Sigma-Aldrich), hydrated, mounted with Pertex and then allowed to dry before scanning. For picrosirius red (PSR) staining, the slides were incubated in Weigert's iron hematoxylin (Sigma-Aldrich), washed in tap water, stained in picrosirius red (Sigma-Aldrich) and then washed twice in acidified water. Excess water was removed by shaking the slides, and the slides were dehydrated in three changes of 99% ethanol, cleared in xylene, mounted with Pertex and then allowed to dry before scanning.\nFor collagen type 1 alpha 1 (collal) and galectin-3 (GAL3) immunohistochemical (IHC) staining, after antigen retrieval and blocking of endogenous peroxidase activity, slides were incubated with the primary antibody (Cat. No. 1310-01 from Southern Biotech for col1α1, or Cat. No. 125402 from Biolegend for galectin-3). […]"}, "[1]": {"conditions": "12 weeks QD (SP-1373 5/10 nmole/kg SC; semaglutide 10 nmole/kg SC; elafibranor 78 mole/kg PO)"}, "[2]": {"conditions": "12 weeks QD (SP-1373 5/10 nmole/kg SC; semaglutide 10 nmole/kg SC; elafibranor PO)"}}}
{"molecule": "CCCCCCCCCCCCCCCCCCO[C@@H]1O[C@H](CO[C@H]2O[C@H](C(=O)NCCCC[C@H](NC(=O)[C@@H](NC(=O)[C@H](Cc3ccccc3)NC(=O)[C@H](CCC(=O)O)NC(=O)[C@@H]3CCCCNC(=O)CC[C@H](NC(=O)[C@H](CC(=O)O)NC(=O)[C@H](CC(C)C)NC(=O)[C@H](Cc4ccc(O)cc4)NC(=O)[C@H](CCCCN)NC(=O)[C@H](CO)NC(=O)[C@H](Cc4ccc(O)cc4)NC(=O)[C@H](CC(=O)O)NC(=O)[C@H](CO)NC(=O)[C@@H](NC(=O)[C@H](Cc4ccccc4)NC(=O)[C@@H](NC(=O)CNC(=O)[C@H](CCC(N)=O)NC(=O)C(C)(C)NC(=O)[C@@H](N)Cc4c[nH]cn4)[C@@H](C)O)[C@@H](C)O)C(=O)N[C@@H](CCC(N)=O)C(=O)N[C@@H](C)C(=O)N[C@@H](C)C(=O)N3)[C@@H](C)CC)C(=O)N[C@@H](Cc3c[nH]c4ccccc34)C(=O)N[C@@H](CC(C)C)C(=O)N[C@@H](CC(C)C)C(=O)N[C@@H](CCC(N)=O)C(=O)N[C@H](C(N)=O)[C@@H](C)O)[C@H](O)[C@H](O)[C@H]2O)[C@@H](O)[C@H](O)[C@H]1O", "note": "[EU-A1026]", "values": [{"measurement": "body weight changes versus vehicle", "setting": "db/db mice; db/db mice, high-dose (300 nmoles/kg) sc at 0, 7 and 24 hours, days 2 and 3", "result": "Significant body weight changes versus vehicle"}, {"measurement": "food consumption versus liraglutide", "setting": "db/db mice; db/db mice, high-dose (300 nmoles/kg)", "result": "significantly different from liraglutide"}, {"measurement": "body weight changes versus vehicle", "setting": "db/db mice; db/db mice, low-dose (100 nmoles/kg) sc at 0, 7 and 24 hours, days 3 and 4", "result": "Significant body weight changes versus vehicle"}, {"measurement": "food consumption versus liraglutide", "setting": "db/db mice; db/db mice, low-dose (100 nmoles/kg)", "result": "significantly different from liraglutide"}, {"measurement": "db/db Mice-Mean Blood Glucose (mg/dL) 0 hr", "setting": "db/db mice; dose 300 nmole/kg sc", "result": 531, "unit": "mg/dL"}, {"measurement": "db/db Mice-Mean Blood Glucose (mg/dL) 10 hr", "setting": "db/db mice; dose 300 nmole/kg sc", "result": 399, "unit": "mg/dL"}, {"measurement": "db/db Mice-Mean Blood Glucose (mg/dL) 24 hr", "setting": "db/db mice; dose 300 nmole/kg sc", "result": 438, "unit": "mg/dL"}, {"measurement": "db/db Mice-Mean Blood Glucose (mg/dL) 48 hr", "setting": "db/db mice; dose 300 nmole/kg sc", "result": 505, "unit": "mg/dL"}, {"measurement": "EC50", "setting": "human GLP-1 receptor", "result": 0.034, "unit": "nM"}, {"measurement": "EC50", "setting": "human glucagon receptor", "result": 0.486, "unit": "nM"}]}
{"molecule": "CCCCCCCCCCCO[C@@H]1O[C@H](C(=O)NCCCC[C@H](NC(=O)[C@@H](NC(=O)[C@H](Cc2ccccc2)NC(=O)[C@H](CCC(=O)O)NC(=O)[C@@H]2CCCCNC(=O)CC[C@H](NC(=O)[C@H](CC(=O)O)NC(=O)[C@H](CC(C)C)NC(=O)[C@H](Cc3ccc(O)cc3)NC(=O)[C@H](CCCCN)NC(=O)[C@H](CO)NC(=O)[C@H](Cc3ccc(O)cc3)NC(=O)[C@H](CC(=O)O)NC(=O)[C@H](CO)NC(=O)[C@@H](NC(=O)[C@H](Cc3ccccc3)NC(=O)[C@@H](NC(=O)CNC(=O)[C@H](CCC(N)=O)NC(=O)C(C)(C)NC(=O)[C@@H](N)Cc3c[nH]cn3)[C@@H](C)O)[C@@H](C)O)C(=O)N[C@@H](CCC(N)=O)C(=O)N[C@@H](C)C(=O)N[C@@H](C)C(=O)N2)[C@@H](C)CC)C(=O)N[C@@H](Cc2c[nH]c3ccccc23)C(=O)N[C@@H](CC(C)C)C(=O)N[C@@H](CC(C)C)C(=O)N[C@@H](CCC(N)=O)C(=O)N[C@H](C(N)=O)[C@@H](C)O)[C@@H](O)[C@H](O)[C@H]1O", "note": "[EU-A1168]", "values": [{"measurement": "time for which elevated blood glucose level was reduced to the normal range", "setting": "db/db mice; db/db mice, 250 nmol/kg subcutaneously at t=0 and 7 hr (FIG. 9)", "result": "around 72 hr"}, {"measurement": "db/db Mice-Mean Blood Glucose (mg/dL) 0 hr", "setting": "db/db mice; dose 250 nmole/kg sc", "result": 380, "unit": "mg/dL"}, {"measurement": "db/db Mice-Mean Blood Glucose (mg/dL) 10 hr", "setting": "db/db mice; dose 250 nmole/kg sc", "result": 133, "unit": "mg/dL"}, {"measurement": "db/db Mice-Mean Blood Glucose (mg/dL) 24 hr", "setting": "db/db mice; dose 250 nmole/kg sc", "result": 169, "unit": "mg/dL"}, {"measurement": "db/db Mice-Mean Blood Glucose (mg/dL) 48 hr", "setting": "db/db mice; dose 250 nmole/kg sc", "result": 164, "unit": "mg/dL"}]}
{"molecule": "CSc1ccc(C(=O)/C=C/c2cc(C)c(OC(C)(C)C(=O)O)c(C)c2)cc1", "note": "[elafibranor]", "values": [{"measurement": "liver fibrosis score (0-4), picrosirius red", "setting": "DIO-NASH mice; 12 weeks QD (SP-1373 5/10 nmole/kg SC; elafibranor PO)", "result": "reduced liver fibrosis in the majority of animals"}, {"measurement": "liver triglycerides (TG) level", "setting": "DIO-NASH mice; [1]", "result": "little or no effect"}, {"measurement": "liver weight", "setting": "DIO-NASH mice; [1]", "result": "increased liver weight"}, {"measurement": "total liver collagen type 1 alpha 1 staining (measure of liver fibrosis)", "setting": "DIO-NASH mice; [1]", "result": "modest effect"}, {"measurement": "total liver galectin-3 staining (biomarker for liver inflammation and fibrosis)", "setting": "DIO-NASH mice; [1]", "result": "essentially no effect"}, {"measurement": "body weight", "setting": "DIO-NASH mice; [2]", "result": "less body weight decrease"}, {"measurement": "liver total cholesterol (TC) level", "setting": "DIO-NASH mice; [2]", "result": "little or no effect"}, {"measurement": "hepatocyte ballooning score (0-2), pre-study to post-study biopsy", "setting": "DIO-NASH mice; [2]", "result": "showed no ballooning"}]}
{"molecule": "semaglutide", "values": [{"measurement": "body weight", "setting": "DIO-NASH mice; [2]", "result": "less body weight decrease"}, {"measurement": "hepatocyte ballooning score (0-2), pre-study to post-study biopsy", "setting": "DIO-NASH mice; [2]", "result": "showed no ballooning"}, {"measurement": "liver steatosis, histology with hematoxylin and eosin stain", "setting": "DIO-NASH mice; semaglutide 10 nmole/kg SC QD 12 weeks", "result": "moderate decrease in hepatosteatosis"}]}
